Experimental data from patent US6867305B2, “Synthesis of epothilones, intermediates thereto and analogues thereof” (Sloan-Kettering Institute for Cancer Research, priority 1996, dated 2005).
Where a name gives a salt, the structure may show the parent alone.

Assays:
[1] = tested on: K562 chronic myelocytic leukemia xenograft; assay: Human tumor xenograft in nude mice; format: in vivo
Experimental: FIG. 34 depicts tumor size in nude mice bearing human leukemia […] tumor following 6 mg/kg C-15-Aza-EpoB, Q2D×6 and 30 mg/kg dEpoF, Q2ED×6 (i.v. infusion […].). K562 tumor cells (1×10^7 in 0.2 mL) were inoculated to nude mice on day 0. Mice were treated with 6 mg/kg aza-EpoB, 6 h-i.v. infusion on days 20, 22, 24, 26, 28 and 30 (Δ, n=3). The same group of mice were then treated with 30 mg/kg dEpoF, 6 h-i.v. infusion on days 42, 44, 46, 48, 52, and 54 (Δ, n=3). […] The control mice (∘, n=3) received vehicle only.
K562 tumor cells (1×10^7, in 0.2 ml/mouse) were implanted s.c. on day 0. […] The control mice (∘, n=4) received vehicle, Cremophor-ethanol (1:1), only. The vertical bars indicate mean tumor size in mm^3±S.E.
(§1) Depending on the tumor type, treatment started on day 10 to day 21 when subcutaneous tumor size reached 35-200 mm^3, except otherwise indicated. Tumor size and body-weight were recorded every other day (Q2D) and, for humane reasons, the animals were sacrificed when tumor size reached ≧10% of body-weight. Each group, including untreated control, consisted of 3-5 animals unless otherwise indicated.
(§2) Athymic nude mice bearing the nu/nu gene were used for all human tumor xenografts. Outbred, Swiss-background mice were obtained from Charles River Laboratories. Male mice 8 weeks or older weighing 22 g and up were used for most experiments. The drug was administered via the tail vein for 6 hr.-i.v. infusion. Each individual mouse was confined in a perforated Falcon polypropylene tube restrainer for drug administration. Tumor volume was assessed by measuring length×width×height (or width) using a caliper. The programmable Harvard PHD2000 syringe pump (Harvard Apparatus) with multi-track was used for i.v. infusion. […] All animal studies were conducted in accordance with the guidelines of the National Institutes of Health “Guide for the Care and Use of Animals” and the protocol approved by the Memorial Sloan-Kettering Cancer Center's Institutional Animal Care and Use Committee. In keeping with the policy of this committee for the humane treatment of tumor-bearing animals, mice were euthanized when tumors reached ≧10% of their total body weight.
(§3) Human tumor cells (5×10^6) or tumor tissue (30-50 mg) were implanted s.c. flank in nu/nu mice (Charles River Laboratories, Wilmington, Mass.). When tumor grew to a specified size, treatment was started by every-other day×5 with 6 hr i.v.-infusion, unless otherwise indicated. Tumor volume was measured with calipers in three dimensions (length×width×height or width). Body-weight changes and lethality were monitored every other day.

CCRF-CEM/VBL1000 = assay: Cell growth inhibition, resistant subline; format: cell-based; conditions: Homo sapiens
Experimental: (§4) The fresh medium containing each drug was replenished every 7-14 days. […] In each case ,the drug-exposed cells were resuspended in fresh media for a minimum of 4 days before the experiments for the cell-growth inhibition was carried out.
(§5) The cells were cultured at an initial density of 2-5×10^4 cells per ml. They were maintained in a 5% CO2-humidified atmosphere at 37° C. in RPMI mediun 1640 (GIBCO/BRL) containing penicillin (100 units/ml), streptomycin (100 μg/ml) (GIBCO/BRL), and 5% heat-inactivated fetal bovine serum. For solid tumor cells growing in a monolayer (such as MCF-7/Adr), cytotoxicitiy of the drug was determined in 96-well microtiter plates by using the sulforhodamine B method as described by Skehan et al (23) for measuring the cellular protein content. For cells that were grown in suspension (such as CCRF-CEM and its sublines), cytotoxicitiy was measured by using the 2,-3-bis(2-methoxy-4-nitro-5-sulfophenyl)-5carboxanilide)-2H terazodium hydroxide (XTT)-microculture tetrazonium method (24) in duplicate in 96-well microtiter plates. For both methods, the absorbance of each well was measured with a microplate reader (EL-340, Bio-Tek, Burlington, Vt.). Each run entailed six or seven concentrations of the tested drugs. Dose-effect relationship data were analyzed with the median-effect plot (25) by using a previously described computer program (26).

CCRF-CEM/VBL = assay: Relative potency in vitro, very highly resistant MDR cells; format: cell-based, human; conditions: Homo sapiens, CCRF-CEM, read-out: CCRF-CEM/VBL IC50 in μM
Experimental: as §5

MCF-7/Adr = assay: Tumor cell growth inhibition in vitro; format: cell-based, human; conditions: Homo sapiens, NCI/ADR-RES, MCF-7/Adr
Experimental: as §5, with “They were maintained in a 5% CO2-humidified atmosphere at 37° C. in RPMI mediun 1640 (GIBCO/BRL) containing penicillin (100 units/ml), streptomycin (100 μg/ml) (GIBCO/BRL), and 5% heat-inactivated fetal bovine serum.” left out

[2] = tested on: PC-3 prostate adenocarcinoma xenograft; assay: Human tumor xenograft in nude mice; format: in vivo; conditions: PC-3, i.v. infusion
Experimental: as §1, §2, §3

[3] = tested on: A549 lung carcinoma xenograft; assay: Human tumor xenograft in nude mice; format: in vivo; conditions: A549, i.v. infusion
Experimental: as §1, §2, §3

UL-3-B/Taxol = assay: cells; conditions: Homo sapiens, UL-3-B/Taxol
[4] = tested on: MX-1 mammary carcinoma xenograft; conditions: MX-1, i.p., ref 19 (Table 4)
[5] = tested on: UL-3-C ovarian adenocarcinoma; assay: Tumor cell growth inhibition in vitro; format: cell-based, human; conditions: Homo sapiens
Experimental: as §4, §5

[6] = tested on: MCF-7 human mammary adenocarcinoma; assay: Tumor cell growth inhibition in vitro; format: cell-based; conditions: Homo sapiens, MCF7, MCF-7; read-out: IC50
Experimental: as §5, with “They were maintained in a 5% CO2-humidified atmosphere at 37° C. in RPMI mediun 1640 (GIBCO/BRL) containing penicillin (100 units/ml), streptomycin (100 μg/ml) (GIBCO/BRL), and 5% heat-inactivated fetal bovine serum.” left out

[7] = tested on: MCF-7/Adr mammary xenograft; assay: Human tumor xenograft in nude mice; format: in vivo; conditions: i.v. infusion

## CC[C@]1(O)C[C@@H]2CN(CCc3c([nH]c4ccccc34)[C@@](C(=O)OC)(c3cc4c(cc3OC)N(C)[C@H]3[C@@](O)(C(=O)OC)[C@H](OC(C)=O)[C@]5(CC)C=CCN6CC[C@]43[C@@H]65)C2)C1 [Vinblastine, vinblastine sulfate, reference compound]
[1]; K562, i.v. infusion, FIG. 3 & 4
  Therapeutic Effect Rank Order: dEpoB>>>VBL> Taxol> Adriamycin
[1]; K562, dEpoB 30 mg/kg, Taxol 20 mg/kg 6 hr i.v. infusion, Adriamycin 3 mg/kg, vinblastine 2.5 mg/kg i.v., every other day from day 20 (FIG. 36)
  therapeutic effect: only partial curative or remissive effects
CCRF-CEM/VBL1000
  IC50: 974 nM
CCRF-CEM/VBL
  IC50: 2.02 µM
MCF-7/Adr
  IC50: 25 nM
[2]
  Therapeutic Effect Rank Order: Taxol, VBL>dEpoB>>VP-16
[3]
  Therapeutic Effect Rank Order: Taxol, dEpoB, VBL>VP-16
UL-3-B/Taxol
  IC50: 3.1 nM
[4]
  Therapeutic Effect Rank Order: dEpoB>Camptothecin>Taxol>VBL, EpoB
[5]
  IC50: 0.37 nM
[6]
  IC50: 9.4 nM
[7]
  Therapeutic Effect Rank Order: dEpoB>>VP-16, Taxol>VBL, Adriamycin
